Data: US20100183613A1, “METHODS OF USING MEVALONATE DECARBOXYLASE (MVD) ANTAGONISTS” (NOVARTIS AG, priority 2008, published 2010)
Entries after “also recorded” stand apart in the source; their conditions may differ. Where two headings read alike, the source gives them in different places.

Assays:
[1] = test system: Dengue NGC virus; experiment: Dengue NGC live virus infection in K562 cells, FACS (anti-E/anti-NS1 double positive cells); type: cell-based; settings: for EC50: read-out: EC50 (effective concentration of 50% inhibition of virus growth); for percent Dengue positive cells (E and NS1 double positive): K562, Dengue NGC, 48 hours, 4.8% positive without treatment; for inhibition of viral growth / effect on infection: K562 infection assay
Method: (§1) For compound testing, K562 infection system was used. […] The cell viability is measured by Celltiter Glo.
(§2) To determine the EC50 (effective concentration of 50% inhibition of virus growth) and the cytotoxity CC50 (concentration of 50% cell death), a dose response curve covering at least four different concentrations was done in K562 infection. The decrease of the percentage of the dengue positive cells was then plotted against the concentrations of inhibitors, using a nonlinear regression analysis to obtain the EC50. CC50 was calculated using the same method using the cell viability over the same range of inhibitor concentrations.

[2] = Cell viability of infected K562 cells by Celltiter Glo; type: cell-based, human; settings: human, K562 cells infected with dengue NGC virus, K562 infection, same range of inhibitor concentrations, read-out: CC50 (concentration of 50% cell death)
Method: as §1, §2

[3] = test system: K562 cells; experiment: as above; type: cell-based, human; settings: for CC50: K562 infection, same range of inhibitor concentrations, read-out: CC50 (concentration of 50% cell death)
Method: as §1, §2

[4] = test system: dengue strain MY10340; experiment: Dengue infection of human PBMCs, FACS; type: cell-based, Dengue virus; settings: human PBMC, two days, enhancing antibodies, increasing concentration
Method: as §1
Statins are a safe and widely used drug for the treatment of hypercholesterolemia (12). The toxicity observed in K562 cells could be due to the specific effect of Statins in a cancer cell line (1,22). For avoiding the toxicity in cancer or transformed cell lines, health donors' PBMC were collected, and tested the effect of statin in PBMC infection was tested. PBMCs were infected with a clinically isolated dengue strain MY10340 for two days in the presence of enhancing antibodies from dengue positive plasma. The infection was assessed by FACS and plaque assay as for K562 infection.

[5] = test system: dengue strain MY10340; experiment: Live virus titer in PBMC infection by plaque assay; type: cell-based, Dengue virus; settings: human PBMC, two days, increasing concentration
Method: PBMC (Peripheral Blood Mononuclear Cell) were prepared from buffy coat from healthy donors using ficoll gradient. […] For virus titer analysis, the level of live virus was determined by plaque assay in BHK-21 cells (ATCC) in triplicate.
For compound testing, K562 infection system was used. 50,000 K562 cells were plated in 96 well in 100 ul and infected the second day with 1 m.o.i of NGC virus for two days. Compounds were added together with the virus and the viral growth was measured by FACS with two antibodies, the anti-Dengue Envelope protein antibody (ATCC) (26) conjugated to Alexa 680 (Invitrogen) and the anti NS1 antibody (ATCC) conjugated to Alexa 488. The cell viability is measured by Celltiter Glo. The supernatant after infection were collected for plaque assay for live virus titer. For PBMC infection, conditions were the same as for K562 infection except 500,000 total cells were plated and an 1:10,000 diluted dengue IgG positive serum was added to the infection.

[6] = test system: Dengue NGC virus; experiment: Plaque assay of supernatant after K562 infection; type: cell-based; settings: infected K562 cells, 48 hours, 0.1 μM and 10 μM
Method: The human lung-epithelial carcinoma A549 cell-line and hematopoetic cell line K562 are from ATCC and cultured according to instruction. PBMC (Peripheral Blood Mononuclear Cell) were prepared from buffy coat from healthy donors using ficoll gradient. The A549 dengue NGC replicon cells used for the work contains non-infectious, self replicating Dengue virus with a Renilla luciferase reporter under puromycin selection (24). Cells were cultured in F12 (Hams) medium (Invitrogen, Carlsbad, Calif.) supplemented with 10% fetal bovine serum (FBS) and puromycin (10-50 μg/ml). Cells were assayed in F12 medium supplement with 2% FBS without puromycin. Dengue NGC virus (GenBank number M29095) and the Malaysian clinical isolates MY10340 (from Shamala Devi, University of Malaya, Malaysia) were propagated in insect cells C6/36 (ATCC). For virus titer analysis, the level of live virus was determined by plaque assay in BHK-21 cells (ATCC) in triplicate.
as §1

[7] = K562 cells, 1 m.o.i NGC virus, two days, decrease of percentage of dengue positive cells by FACS

`CC(C)n1c(/C=C/C(O)CC(O)CC(=O)O)c(-c2ccc(F)cc2)c2ccccc21` (stereo not drawn) [Fluvastatin] gave an EC50 ([1]; Dengue virus, K562, 48 h) of over 50 µM and a CC50 at 2 days [2] of 48.8 µM.

With `CC(C)C[C@H](NC(=O)c1ccc(NCc2cnc[nH]2)cc1-c1cccc2ccccc12)C(=O)O` [GGTI 2133] the EC50 [1, 7] was over 50 µM and the CC50 [3] was over 50 µM.

For `CC[C@H](C)C(=O)O[C@H]1C[C@@H](C)C=C2C=C[C@H](C)[C@H](CC[C@@H]3C[C@@H](O)CC(=O)O3)[C@H]21` [Lovastatin], the EC50 ([1]; 48 h, K562 cells, 1 m.o.i NGC virus, two days, decrease of percentage of dengue positive cells by FACS) was over 50 µM, the CC50 at 2 days [2] was 46.8 µM and the “percentage of infected cells” value [4] was “decreased”. The virus titer [5] was “decreased”.

With `C=C(CC[C@]12O[C@H](C(=O)O)[C@@](O)(C(=O)O)[C@](C(=O)O)(O1)[C@H](OC(=O)/C=C/[C@@H](C)C[C@@H](C)CC)[C@H]2O)[C@@H](OC(C)=O)[C@H](C)Cc1ccccc1` [Zaragozic Acid, Zaragozic acid A] the “percent Dengue positive cells (E and NS1 double positive)” value ([1]; 0.1 μM ZGA) was 2.8%, the “percent Dengue positive cells (E and NS1 double positive)” value ([1]; 10 μM ZGA) was 0.6% and the EC50 [1, 7] was 8.3 µM. The “inhibition of viral growth / effect on infection” value [1] was “significantly inhibited”, the “effect on cell viability / cytotoxicity” value ([3]; K562 cells, dose range, 48 hours, listed as ZGA) was “no significant cytotoxicity; also recorded: no effect” and the CC50 [3] was over 50 µM. For the same compound, the “fold less plaque than cells treated with DMSO alone” value [6] was 2-6 fold.

For Hymeglusin, the EC50 [1, 7] was 4.5 µM, the “inhibition of viral growth / effect on infection” value [1] was “significantly inhibited” and the CC50 [3] was about 50 µM.
